Test results taken from patent publication US20030072781A1, “Calcified tissue facing preparation containing antimicrobial agent” (Advantage Dental Products, Inc., priority 1998, published 2003).

Tested on: Strept. mutans
Assay: Strept. mutans culture rinse, colony count
Format: cell-based
Conditions: 30 second submersion, counted after 48 hours
Experimental: Standardized cultures of Strept. mutans are grown in petri dishes and subjected to 30 second submersion in 20 milliliters of various concentration rinses of aqueous chlorohexidine. A 0.04% chlorohexidine solution and water serve as controls. Thereafter, the petri dishes are incubated and colony members counted after 48 hours.

SMILES: [H]/N=C(\N/C(=N/[H])NCCCCCCNC(=N)NC(=N)Nc1ccc(Cl)cc1)Nc1ccc(Cl)cc1 [Chlorohexidine, chlorohexidine]
- Colony Member After Rinse (0.04 wt. % aqueous rinse (control)): 26
- Colony Member After Rinse (0.2 wt. % aqueous rinse): 0
- Colony Member After Rinse (0.5 wt. % aqueous rinse): 1
- Colony Member After Rinse (1.0 wt. % aqueous rinse): 1
- Colony Member After Rinse (2.0 wt. % aqueous rinse): 0
- Colony Member After Rinse (5.0 wt. % aqueous rinse): 2
- Colony Member After Rinse (10.0 wt. % aqueous rinse): 0
